SMILES strings stand for the structures. In brackets after ≈: the same amount, converted by molar mass. Entries after “also recorded” stand apart in the source; their conditions may differ.

From patent US9024043B2, “Pimarane diterpenes from Anisochilus verticillatus” (Council of Scientific & Industrial Research, priority 2011, dated 2015) come the findings set out here.

The test system of assay [1] is Mycobacterium tuberculosis H37Ra. Briefly: Anti-mycobacterial activity (XTT-menadione assay). It counts as cell-based. Conditions: for inhibition at 100 µg/mL: read-out: % inhibition at 100 μg/ml against M. tuberculosis (footnote c); for antimycobacterial activity against M. tuberculosis (in words): in vitro; for IC90: concentration exhibiting 90% inhibition against growth, H37Ra, 8th day of incubation, read-out: IC90 value determined against M. tuberculosis. As for the experimental part: All the isolated compounds and whole acetone extract were tested for their in vitro effect against Mycobacterium tuberculosis H37Ra culture maintained in-house.
M. tuberculosis, H37Ra (ATCC 25177) cells were grown to logarithmic phase (O.D.595˜1.0) in a defined medium (M. pheli medium) under aerobic conditions in a shaker incubator (Thermo Electron Corporation Model 481) maintained at 150 rpm and 37° C. After growth, the culture was sonicated for 2 min using a water bath sonicator. Sonicated cells were used for inoculation in micro plate wells. 250 μl of the culture containing ˜10 5 cells/ml was added to each well of 96 well plates. 2.5 μl of the test samples dissolved in DMSO was added to the wells to attain a final concentration of 100 ug/ml respectively for the preliminary screening. Dose response curve of the active compounds was carried out by making serial dilutions of the test samples. Then, the plate was incubated in a CO2 incubator at 37° C. The plate was taken out on the 8th day of incubation to measure the viable cell counts. The optical density of the culture was measured before addition of XTT at 470 nm which was served as a blank for the MIC calculations. 200 μM XTT was added and incubated for 20 min at 37° C. after shaking for 1 min. After 20 min of incubation, 60 μM menadione was added and incubated at 37° C. for 40 min after mixing of 1 min. Finally, the optical density of the suspension was measured at 470 nm by using microplate reader.

The test system of assay [2] is THP-1 (Human acute leukemia cells) cell lines. Briefly: Cytotoxicity studies (MTT assay). It counts as cell-based. Conditions: for inhibition at 100 µg/mL: Homo sapiens, THP-1, 100 μg/ml, 72 h, MTT, read-out: % Inhibition on Thp-1 cell line at 100 μg/ml. As for the experimental part: Compounds 3 was tested at IC90 values and also at higher concentration, 100 μg/ml, for their in vitro cytotoxicity against THP-1 (Human acute leukemia cells) cell lines procured from National Cell Repository, India.
About 10,000 cells were taken per well in 96-well tissue culture plates and treated with compound 3 at IC90 values and also at higher concentration, 100 μg/ml for 72 h. Vehicle control (DMSO, 1%) and positive control (Paclitaxel, 100 μg/ml) were run simultaneously. Cell proliferation was assessed with 10 μl from 5 mg/ml stock solution of tetrazolium salt (MTT) dissolved in cell culture medium and subsequently incubated for additional 1 h at 37° C., 5% of CO2 and 95% humidity in incubator. The violet coloured formazan crystals formed were solubilized in 200 μl of isopropanol and incubated for another 4 h. The optical density was read on a micro plate reader (Spectramax plus384 plate reader, Molecular Devices Inc) at 490 nm filter against a blank prepared from cell-free wells. Absorbance given by cells treated with the carrier DMSO alone was taken as 100% cell growth. All experiments were performed in triplicate, and the quantitative value was expressed as the average±standard deviation.

[3] abbreviates: Mycobacterium tuberculosis, H37RA.

On to `C=C[C@@]1(C)CC[C@@]2(O)[C@]3(CC[C@@]4(OO3)C(C)(C)CCC[C@]24C)C1` [Compound 1, pimarane-5,8-peroxide], for which the inhibition at 100 µg/mL in assay [1] (setting [3]) was found to be 42.9%. In addition, the “antimycobacterial activity against M. tuberculosis (in words)” value (“antimycobacterial activity” below) in assay [1] is “effective”.
With `C=C[C@@]1(C)CC[C@H]2[C@@](O)(C[C@@H](O)[C@@]3(O)C(C)(C)CCC[C@]23C)C1` [Compound 2, pimarane-triol], the concentration for an effect of 90% (IC90) in assay [1] (Mycobacterium tuberculosis) was determined as 20 µg/mL (≈ 62 µM). The “antimycobacterial activity” value in assay [1] is “effective”.
`C=C[C@@]1(C)CC[C@@]2(O)[C@@](O)(C[C@@H](O)[C@@]3(O)C(C)(C)CCC[C@]23C)C1` [Compound 3, pimarane-tetrol]: the results for the inhibition at 100 µg/mL in assay [2] and in assay [1] (setting [3]) were 57.2% and 35%, respectively. Further, in assay [2] (in vitro), the “anti-cancer activity against THP-1 cell lines (in words)” value is recorded as “showed anti-cancer activity; also recorded: comparable to that of known standard drug, paclitaxel”. Besides, the “antimycobacterial activity” value in assay [1] was “effective”.
With `C=CCc1ccc(O)c(O)c1` [Compound 4, Hydroxychavicol], the IC50 in assay [1] (Mycobacterium tuberculosis, H37RA, read-out: IC50 against growth of M. tuberculosis (footnote d)) stood at 12.5 µg/mL (≈ 83.2 µM). In assay [1], the “antimycobacterial activity” value was “effective”.
Regarding `NNC(=O)c1ccncc1` [Isoniazid, reference compound], the IC90 in assay [1] (Mycobacterium tuberculosis) turned out to be 0.05 ± 0.003 µg/mL (≈ 0.365 µM).
For the compound `CC(=O)O[C@H]1C(=O)[C@@]2(C)[C@H]([C@H](OC(=O)c3ccccc3)[C@]3(O)C[C@H](OC(=O)[C@H](O)[C@@H](NC(=O)c4ccccc4)c4ccccc4)C(C)=C1C3(C)C)[C@]1(OC(C)=O)CO[C@@H]1C[C@@H]2O` [Paclitaxel, reference compound], in assay [2], the inhibition at 100 µg/mL stood at 61%.
